Laboratory results: ChEMBL document CHEMBL1201862, “PubChem BioAssay data set” (2004)
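In this assay, cells in 96-well plates receive the compound at five concentrations for 48 hours. Endpoints are linearly interpolated between the surrounding concentrations. GI50 is the concentration that inhibits growth by half.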 Calls of active or inactive are those of the source. Rule as the data show it: active = GI50 up to about 1.1 µM and inactive = higher.

Legend:
Assay in all cases: DTP human tumour cell line panel, 48 h
[1] = tested on: SK-MEL-28
[2] = tested on: A549
[3] = tested on: TK-10
[4] = tested on: KM12
[5] = tested on: SK-MEL-5
[6] = tested on: UACC-257
[7] = tested on: EKVX
[8] = tested on: OVCAR-4
[9] = tested on: HCT-15
[10] = tested on: OVCAR-8
[11] = tested on: OVCAR-3
[12] = tested on: SK-OV-3
[13] = tested on: U-251
[14] = tested on: HT-29
[15] = tested on: ACHN
[16] = tested on: HL-60
[17] = tested on: A498
[18] = tested on: CCRF-CEM
[19] = tested on: RPMI-8226
[20] = tested on: LOX IMVI

Row | Structure (SMILES) | GI50 [1] | GI50 [2] | GI50 [3] | GI50 [4] | GI50 [5] | GI50 [6] | GI50 [7] | GI50 [8] | GI50 [9] [µM] | GI50 [10] | GI50 [11] | GI50 [12] | GI50 [13] | GI50 [14] | GI50 [15] | GI50 [16] | GI50 [17] | GI50 [18] | GI50 [19] | GI50 [20]
1 | O=C1C=CC=C/C1=C1/SC(c2ccccc2)=C(O)N1c1ccccc1 | > 100 µM (inactive) | > 100 µM (inactive) | > 100 µM (inactive) | > 100 µM (inactive) | > 100 µM (inactive) | > 100 µM (inactive) | > 100 µM (inactive) | > 100 µM (inactive) | > 100 | > 100 µM (inactive) | > 100 µM (inactive) | > 100 µM (inactive) | > 100 µM (inactive) | > 100 µM (inactive) | > 100 µM (inactive) | – | – | – | – | –
2 | COc1ccc(/C=N/n2c(C)nc3c(sc(=S)n3-c3ccccc3)c2=O)cc1 | 43.7 µM (inactive) | > 100 µM (inactive) | > 100 µM (inactive) | > 100 µM (inactive) | > 100 µM (inactive) | 62.7 µM (inactive) | – | – | – | > 100 µM (inactive) | 45.5 µM (inactive) | > 100 µM (inactive) | > 100 µM (inactive) | 37.2 µM (inactive) | > 100 µM (inactive) | 21.6 µM (inactive) | 36 µM (inactive) | 21.1 µM (inactive) | 27 µM (inactive) | –
3 | O=C(N/N=C/C=C/c1ccccc1)[C@H](O)[C@@H](O)C(=O)N/N=C/C=C/c1ccccc1 | > 100 µM (inactive) | > 100 µM (inactive) | > 100 µM (inactive) | > 100 µM (inactive) | > 100 µM (inactive) | > 100 µM (inactive) | > 100 µM (inactive) | – | > 100 | > 100 µM (inactive) | – | > 10 µM (inactive) | > 100 µM (inactive) | – | > 100 µM (inactive) | > 100 µM (inactive) | > 100 µM (inactive) | > 100 µM (inactive) | > 100 µM (inactive) | > 100 µM (inactive)
4 | CCCCC1(N=[N+]=[N-])C(=O)c2cccc3c2N(CCC3)C1=O (configuration not stated) | > 100 µM (inactive) | > 100 µM (inactive) | > 100 µM (inactive) | > 100 µM (inactive) | > 100 µM (inactive) | > 100 µM (inactive) | > 100 µM (inactive) | > 100 µM (inactive) | > 100 | > 100 µM (inactive) | 44.6 µM (inactive) | > 100 µM (inactive) | > 100 µM (inactive) | > 100 µM (inactive) | > 100 µM (inactive) | – | > 100 µM (inactive) | 91.6 µM (inactive) | > 100 µM (inactive) | > 100 µM (inactive)
5 | O=C(NC1C/C(=N/O)c2c(Br)sc(Br)c21)C(F)(F)F (configuration not stated) | – | 20 µM (inactive) | 36.3 µM (inactive) | 45 µM (inactive) | 19.6 µM (inactive) | 22.9 µM (inactive) | 27 µM (inactive) | 13.8 µM (inactive) | 24.8 | 20.7 µM (inactive) | 35.8 µM (inactive) | 47.6 µM (inactive) | 16.7 µM (inactive) | 26.9 µM (inactive) | 34 µM (inactive) | 32.4 µM (inactive) | 24.5 µM (inactive) | 20.2 µM (inactive) | – | 25.5 µM (inactive)
6 | CCN(CC)C(=O)c1cc(OC(C)C)ccc1-c1c(C)cc(OC(C)C)c(OC)c1OC | > 100 µM (inactive) | 48.6 µM (inactive) | > 100 µM (inactive) | 57.8 µM (inactive) | 35.6 µM (inactive) | – | 60.7 µM (inactive) | 47.5 µM (inactive) | 46.9 | 58.5 µM (inactive) | 71 µM (inactive) | > 100 µM (inactive) | 63 µM (inactive) | 38 µM (inactive) | 57.8 µM (inactive) | 45.9 µM (inactive) | – | 34 µM (inactive) | 24.2 µM (inactive) | 58.9 µM (inactive)
7 | COCCO [2-METHOXYETHANOL] | > 100 µM (inactive) | > 100 µM (inactive) | – | > 100 µM (inactive) | > 100 µM (inactive) | > 100 µM (inactive) | > 100 µM (inactive) | > 100 µM (inactive) | > 100 | > 100 µM (inactive) | > 100 µM (inactive) | > 100 µM (inactive) | > 100 µM (inactive) | > 100 µM (inactive) | – | > 100 µM (inactive) | > 100 µM (inactive) | – | > 100 µM (inactive) | > 100 µM (inactive)
8 | COc1cc2ccc(CC(N)=O)cc2cc1OC | > 100 µM (inactive) | > 100 µM (inactive) | > 100 µM (inactive) | > 100 µM (inactive) | > 100 µM (inactive) | > 100 µM (inactive) | > 100 µM (inactive) | > 100 µM (inactive) | > 100 | > 100 µM (inactive) | > 100 µM (inactive) | > 100 µM (inactive) | > 100 µM (inactive) | > 100 µM (inactive) | – | – | – | > 100 µM (inactive) | > 100 µM (inactive) | > 100 µM (inactive)
9 | COc1cc(C2C(=O)C(Cl)N2Nc2nc(C)cc(O)n2)cc(OC)c1OC (configuration not stated) | 17 µM (inactive) | 27.9 µM (inactive) | 24.3 µM (inactive) | 19 µM (inactive) | 12.9 µM (inactive) | 22.5 µM (inactive) | 33.3 µM (inactive) | 16.1 µM (inactive) | 11.5 | 17.1 µM (inactive) | 4.91 µM (inactive) | – | 13.3 µM (inactive) | 23.8 µM (inactive) | 11.1 µM (inactive) | 9.84 µM (inactive) | – | < 0.01 µM (active) | > 10 µM (inactive) | 10.5 µM (inactive)
10 | CC(SC(=S)N1CCOCC1)C(=O)Nc1nnc(-c2ccc(Cl)cc2)o1 (configuration not stated) | > 100 µM (inactive) | 34.5 µM (inactive) | 79.8 µM (inactive) | – | 31.6 µM (inactive) | 46.1 µM (inactive) | – | 26.7 µM (inactive) | 20.7 | 42.2 µM (inactive) | 25.8 µM (inactive) | 67.3 µM (inactive) | 35 µM (inactive) | 36.9 µM (inactive) | 51.2 µM (inactive) | – | 60.5 µM (inactive) | < 0.01 µM (active) | 23.2 µM (inactive) | 28.8 µM (inactive)
11 | Cc1ccc(CCC(=O)C(=O)O)s1 | > 100 µM (inactive) | > 100 µM (inactive) | 78.7 µM (inactive) | > 100 µM (inactive) | > 100 µM (inactive) | > 100 µM (inactive) | > 100 µM (inactive) | > 100 µM (inactive) | > 100 | > 100 µM (inactive) | > 100 µM (inactive) | > 100 µM (inactive) | 81.7 µM (inactive) | > 100 µM (inactive) | > 100 µM (inactive) | > 100 µM (inactive) | 89.5 µM (inactive) | > 100 µM (inactive) | > 100 µM (inactive) | –
12 | CC(C)OP(=O)(OC(C)C)c1nn(-c2ccc([N+](=O)[O-])cc2)c(=N)s1 | > 100 µM (inactive) | > 100 µM (inactive) | > 100 µM (inactive) | > 100 µM (inactive) | 69.5 µM (inactive) | 38.1 µM (inactive) | > 100 µM (inactive) | > 100 µM (inactive) | > 100 | > 100 µM (inactive) | 77.8 µM (inactive) | > 100 µM (inactive) | > 100 µM (inactive) | > 100 µM (inactive) | 80.5 µM (inactive) | 68.1 µM (inactive) | > 100 µM (inactive) | > 100 µM (inactive) | > 100 µM (inactive) | –
13 | C=CC(=O)NC(O)(C(=O)OCC)C(F)(F)F (configuration not stated) | > 100 µM (inactive) | > 100 µM (inactive) | > 100 µM (inactive) | > 100 µM (inactive) | > 100 µM (inactive) | > 100 µM (inactive) | > 100 µM (inactive) | > 100 µM (inactive) | > 100 | > 100 µM (inactive) | > 100 µM (inactive) | > 100 µM (inactive) | > 100 µM (inactive) | > 100 µM (inactive) | > 100 µM (inactive) | 35 µM (inactive) | – | > 100 µM (inactive) | > 100 µM (inactive) | > 100 µM (inactive)
14 | O=C1CCC(c2ccccc2)=NN1c1nsc2ccccc12 | > 100 µM (inactive) | > 100 µM (inactive) | > 100 µM (inactive) | > 100 µM (inactive) | > 100 µM (inactive) | > 100 µM (inactive) | 82.6 µM (inactive) | > 100 µM (inactive) | > 100 | > 100 µM (inactive) | 83.8 µM (inactive) | – | > 100 µM (inactive) | > 100 µM (inactive) | > 100 µM (inactive) | > 100 µM (inactive) | – | 61.4 µM (inactive) | 70.1 µM (inactive) | > 100 µM (inactive)
15 | Cc1ccc(NC(=S)NNC(=O)c2cc(-c3ccccc3)nc3ccccc23)cc1C | 25.8 µM (inactive) | 20.5 µM (inactive) | 23.7 µM (inactive) | 27.4 µM (inactive) | 18 µM (inactive) | 26.4 µM (inactive) | – | 18.1 µM (inactive) | 20.4 | 20.8 µM (inactive) | – | 16.6 µM (inactive) | 19.5 µM (inactive) | 23.7 µM (inactive) | 25.2 µM (inactive) | – | 16.6 µM (inactive) | 27.5 µM (inactive) | 24.3 µM (inactive) | –
16 | Cc1nnc(Nc2ccc(Cl)cc2)o1 | > 10 µM (inactive) | > 10 µM (inactive) | > 10 µM (inactive) | > 10 µM (inactive) | > 10 µM (inactive) | > 10 µM (inactive) | > 10 µM (inactive) | > 10 µM (inactive) | > 10 | > 10 µM (inactive) | > 10 µM (inactive) | > 10 µM (inactive) | > 10 µM (inactive) | > 10 µM (inactive) | > 10 µM (inactive) | > 10 µM (inactive) | > 10 µM (inactive) | > 10 µM (inactive) | – | > 10 µM (inactive)
